From US6730665B1, “Treatment of bone cancer” (Mayo Foundation for Medical Education and Research, priority 1999, dated 2004)

How the values were obtained:
[1] = tested on: MG63 human osteosarcoma cells; assay: Cell survival, viable cell count with trypan blue; type: cell-based; details: for cell survival: 20 and 50 μM
Procedure: (§1) MG63 and TE85 human osteosarcoma cells, and ROS 17/2.8 rat osteosarcoma cells were grown in DMEM/F12 phenol-red free medium containing 10% charcoal-stripped fetal bovine serum (FBS) and supplemented with 100 units/ml penicillin, 100 μg/ml streptomycin. Cell were incubated at 37° C. under 5% CO2 in air. Cells were plated at 5×10^4 cells per well into 24 well plates containing 1 ml of medium per well. After allowing the cells to attach overnight, media in the wells were replaced with fresh 1 ml medium. Human fetal osteoblasts (hFOB) cells and hFOB cells overexpressing estrogen receptor-alpha (hFOB-ERα) and estrogen receptor-beta (hFOB-ERβ) were grown in DMEM/F12 medium containing FBS, penicillin, streptomycin and Geneticin (300 μg/mL). The laboratory of Dr. B. L. Riggs at Mayo Clinic provided primary human osteoblast (HOB) cells. HOB cells were basically established from cancellous bone obtained as waste from orthopedic procedures and cultured as explants to generate the osteoblast-like monolayers as described by Borke et al., J. Clin. Endocrinol. Metab., 1988, 67:1299-1304. Human FOB cells and hFOB cells stably transfected with estrogen receptors (ERs) were maintained at 34° C., while all other cells were incubated at 37° C. under 5% CO2 in air.
(§2) Estrogen metabolites were diluted 1000 fold to give the final required concentrations in each well, and maintained for 72 hrs. The metabolites 2ME, 2OHE, and E2 were purchased from Sigma Chemical Company (St. Louis, Mo.). Stock solutions for each metabolite were made in 95% ethanol. Cell growth was measured by taking the viable cell count. At the end of metabolite treatment, cells were harvested, stained with trypan blue, and counted under a light microscope.
MG63 cells were treated with 0, 2, and 10 μM concentrations of 2ME in the presence or absence of 100 nM ICI for 72 hours. The cells were harvested and the viable cell counts were taken after staining with trypan blue.

[2] = tested on: osteosarcoma cells and immortalized cell lines; assay: Cell survival, summary statement; type: cell-based; details: for impact on cell survival (in words): 2 μM, 72 hours; for reduction of cell survival: 20 μM
Procedure: as §1, §2

Structure (SMILES) | impact on cell survival (in words) ([1]; 100 nM ICI alone, 72 hours) | impact on cell survival (in words) [2] | impact on cell survival (in words) ([1]; 2 μM, 72 hrs) | cell survival ([1]; 72 hrs) | reduction of cell survival [2] [%]
C[C@]12CC[C@@H]3c4ccc(O)cc4C[C@@H](CCCCCCCCC[S+]([O-])CCCC(F)(F)C(F)(F)F)[C@H]3[C@@H]1CC[C@@H]2O (stereo partly shown) [ICI] | little impact | – | – | – | –
COc1cc2c(cc1O)CC[C@@H]1[C@@H]2CC[C@]2(C)C(=O)CC[C@@H]12 [2-methoxyestrone] | – | minimal impact | – | – | –
C[C@]12CC[C@@H]3c4cc(O)c(O)cc4CC[C@H]3[C@@H]1CC[C@@H]2O [2OHE, 2-hydroxyestradiol] | – | minimal impact | little impact | about 40% | 60
C[C@]12CC[C@@H]3c4ccc(O)cc4CC[C@H]3[C@@H]1CC[C@@H]2O [E2, 17β-estradiol] | – | minimal impact | little impact | ~50% | 50
